# Source: US8993604B2, “Treatment and prevention of dengue virus infections” (Siga Technologies, Inc., priority 2009, dated 2015)
# pEC50: −log10 of the molar value.
# Test system: Dengue-2 (Strain New Guinea C)
# Assay: Viral yield assay in Vero cells
# Type: cell-based
# Conditions: Dengue virus; Vero cells, MOI 0.1, harvested 48 hours post infection; read-out: Activity (anti-dengue 2 viral activity, EC50 class)
# Method: Compounds that were active in the primary screen were tested for activity in viral yield assays. […] Vero cells in 12-well plates were infected with dengue-2 virus at a multiplicity of infection (MOI) of 0.1, treated with compound (or DMSO as a control), incubated at 37° C., harvested 48 hours post infection and titered on Vero cells as described above. The EC50 was calculated through ExcelFit. Activities against other serotypes of dengue virus were determined in a similar way.
row,SMILES,pEC50
1,"COc1cc(OC)cc(C(=O)Nc2ccc(Cl)c(-c3nc4ccccc4s3)c2)c1 [Compound 86, N-(3-Benzothiazol-2-yl-4-chloro-phenyl)-3,5-dimethoxy-benzamide]",< 4.60
2,"Cc1ccc(C(=O)Nc2ccc(-c3nc4ccc(C)cc4s3)cc2)c(Cl)c1 [Compound 87, 2-Chloro-4-methyl-N-[4-(6-methyl-benzothiazol-2-yl)-phenyl]-benzamide]",< 4.60
3,"COc1ccc(C(=O)Nc2ccc(-c3nc4ccccc4s3)cc2)cc1[N+](=O)[O-] [Compound 88, N-(4-Benzothiazol-2-yl-phenyl)-4-methoxy-3-nitro-benzamide]",< 4.60
4,"Cc1ccc(C(=O)Nc2cccc(-c3nc4ccccc4s3)c2)cc1 [Compound 89, N-(3-Benzothiazol-2-yl-phenyl)-4-methyl-benzamide]",< 4.60
5,"O=C(Nc1cccc(-c2nc3ccccc3s2)c1)c1ccc(F)cc1 [Compound 90, N-(3-Benzothiazol-2-yl-phenyl)-4-fluoro-benzamide]",< 4.60
6,"COc1ccc(C(=O)Nc2cccc(-c3nc4ccccc4s3)c2)cc1 [Compound 91, N-(3-Benzothiazol-2-yl-phenyl)-4-methoxy-benzamide]",< 4.60
7,"Cc1ccccc1C(=O)Nc1cccc(-c2nc3ccccc3s2)c1 [Compound 92, N-(3-Benzothiazol-2-yl-phenyl)-2-methyl-benzamide]",< 4.60
8,"O=C(Nc1ccccc1-c1nc2ccccc2s1)c1ccccc1F [Compound 93, N-(2-Benzothiazol-2-yl-phenyl)-2-fluoro-benzamide]",< 4.60
9,"CCN(CC)S(=O)(=O)c1ccc(C(=O)Nc2ccccc2-c2nc3ccccc3s2)cc1 [Compound 94, N-(2-Benzothiazol-2-yl-phenyl)-4-diethylsulfamoyl-benzamide]",< 4.60
10,"COc1cccc(OC)c1C(=O)Nc1ccc(-c2nc3ccccc3s2)cc1 [Compound 95, N-(4-Benzothiazol-2-yl-phenyl)-2,6-dimethoxy-benzamide]",< 4.60
11,"O=C(Nc1cccc(-c2nc3ccccc3s2)c1)c1ccc(N2CCCC2)c([N+](=O)[O-])c1 [Compound 96, N-(3-Benzothiazol-2-yl-phenyl)-3-nitro-4-pyrrolidin-1-yl-benzamide]",< 4.60
12,"O=C(Nc1ccccc1-c1nc2ccccc2s1)c1cccc(Cl)c1Cl [Compound 97, N-(2-Benzothiazol-2-yl-phenyl)-2,3-dichloro-benzamide]",< 4.60
13,"O=C(Nc1ccccc1-c1nc2ccccc2s1)c1ccc([N+](=O)[O-])cc1Cl [Compound 98, N-(2-Benzothiazol-2-yl-phenyl)-2-chloro-4-nitro-benzamide]",< 4.60
14,"Cc1ccc(C(=O)Nc2ccccc2-c2nc3ccccc3s2)cc1C [Compound 99, N-(2-Benzothiazol-2-yl-phenyl)-3,4-dimethyl-benzamide]",< 4.60
15,"COc1c(Cl)cc(Cl)cc1C(=O)Nc1ccccc1-c1nc2ccccc2s1 [Compound 100, N-(2-Benzothiazol-2-yl-phenyl)-3,5-dichloro-2-methoxy-benzamide]",< 4.60
16,"CCC(C)Oc1ccc(C(=O)Nc2ccccc2-c2nc3ccccc3s2)cc1 (centres unmarked) [Compound 101, N-(2-Benzothiazol-2-yl-phenyl)-4-sec-butoxy-benzamide]",< 4.60
17,"O=C(Nc1ccccc1-c1nc2ccccc2s1)c1cc(Br)ccc1Cl [Compound 102, N-(2-Benzothiazol-2-yl-phenyl)-5-bromo-2-chloro-benzamide]",< 4.60
18,"O=C(Nc1ccccc1-c1nc2ccccc2s1)c1cccc(I)c1 [Compound 103, N-(2-Benzothiazol-2-yl-phenyl)-3-iodo-benzamide]",< 4.60

row,SMILES,pEC50
1,"COc1cc(OC)cc(C(=O)Nc2ccccc2-c2nc3ccccc3s2)c1 [Compound 104, N-(2-Benzothiazol-2-yl-phenyl)-3,5-dimethoxy-benzamide]",< 4.60
2,"O=C(Nc1ccccc1-c1nc2ccccc2s1)c1ccc(-c2ccccc2)cc1 [Compound 105, Biphenyl-4-carboxylic acid (2-benzothiazol-2-yl-phenyl)-amide]",< 4.60
3,"CCCCOc1cccc(C(=O)Nc2ccccc2-c2nc3ccccc3s2)c1 [Compound 106, N-(2-Benzothiazol-2-yl-phenyl)-3-butoxy-benzamide]",< 4.60
4,"Cc1ccc(C(=O)Nc2ccccc2-c2nc3ccccc3s2)cc1[N+](=O)[O-] [Compound 107, N-(2-Benzothiazol-2-yl-phenyl)-4-methyl-3-nitro-benzamide]",< 4.60
5,"COc1c(Cl)cc(C(=O)Nc2ccccc2-c2nc3ccccc3s2)cc1Cl [Compound 108, N-(2-Benzothiazol-2-yl-phenyl)-3,5-dichloro-4-methoxy-benzamide]",< 4.60
6,"O=C(Nc1ccccc1-c1nc2ccccc2s1)c1cccc2c(Cl)cccc12 [Compound 109, 5-Chloro-naphthalene-1-carboxylic acid (2-benzothiazol-2-yl-phenyl)-amide]",< 4.60
7,"O=C(Nc1ccccc1-c1nc2ccccc2s1)c1cccc(F)c1 [Compound 110, N-(2-Benzothiazol-2-yl-phenyl)-3-fluoro-benzamide]",< 4.60
8,"O=C(Nc1ccccc1-c1nc2ccccc2s1)c1cccc(OCc2ccccc2)c1 [Compound 111, N-(2-Benzothiazol-2-yl-phenyl)-3-benzyloxy-benzamide]",< 4.60
9,"COc1ccccc1C(=O)Nc1ccccc1-c1nc2ccccc2s1 [Compound 112, N-(2-Benzothiazol-2-yl-phenyl)-2-methoxy-benzamide]",< 4.60
10,"COc1ccc(C(=O)Nc2ccccc2-c2nc3ccccc3s2)cc1[N+](=O)[O-] [Compound 113, N-(2-Benzothiazol-2-yl-phenyl)-4-methoxy-3-nitro-benzamide]",< 4.60
11,"Cc1c(C(=O)Nc2ccccc2-c2nc3ccccc3s2)cccc1[N+](=O)[O-] [Compound 114, N-(2-Benzothiazol-2-yl-phenyl)-2-methyl-3-nitro-benzamide]",< 4.60
12,"Cc1cc(C(=O)Nc2ccccc2-c2nc3ccccc3s2)ccc1[N+](=O)[O-] [Compound 115, N-(2-Benzothiazol-2-yl-phenyl)-3-methyl-4-nitro-benzamide]",< 4.60
13,"O=C(Nc1ccccc1-c1nc2ccccc2s1)c1ccccc1Br [Compound 116, N-(2-Benzothiazol-2-yl-phenyl)-2-bromo-benzamide]",< 4.60
14,"Cc1ccc(C(=O)Nc2cc(-c3nc4ccccc4s3)ccc2C)c(C)c1 [Compound 117, N-(5-Benzothiazol-2-yl-2-methyl-phenyl)-2,4-dimethyl-benzamide]",< 4.60
15,"COc1cccc(OC)c1C(=O)Nc1ccc(Cl)c(-c2nc3ccccc3s2)c1 [Compound 118, N-(3-Benzothiazol-2-yl-4-chloro-phenyl)-2,6-dimethoxy-benzamide]",< 4.60
16,"Cc1cc(C(=O)Nc2ccc(-c3nc4ccccc4s3)c(Cl)c2)ccc1[N+](=O)[O-] [Compound 119, N-(4-Benzothiazol-2-yl-3-chloro-phenyl)-3-methyl-4-nitro-benzamide]",< 4.60
17,"O=C(Nc1ccc(-c2nc3ccccc3s2)c(Cl)c1)c1cccc([N+](=O)[O-])c1 [Compound 120, N-(4-Benzothiazol-2-yl-3-chloro-phenyl)-3-nitro-benzamide]",< 4.60
